Laboratory results taken from ChEMBL document CHEMBL1137924, “Carbonic anhydrase inhibitors. Inhibition of the beta-class enzyme from the methanoarchaeon Methanobacterium thermoautotrophicum (Cab) with anions” (Bioorg Med Chem Lett, 2004).
Where “and” joins values, the source holds several entries; their conditions need not be identical. Equal entries are not always repeated.

Key:
[1] = biological target: Carbonic anhydrase 4 (Homo sapiens, UniProt P22748); test: Inhibitory constant against carbonic anhydrase IV
[2] = biological target: T1, Carbonic anhydrase (Methanosarcina thermophila, UniProt P40881); format: functional
T1 sequence (P40881 whole entry): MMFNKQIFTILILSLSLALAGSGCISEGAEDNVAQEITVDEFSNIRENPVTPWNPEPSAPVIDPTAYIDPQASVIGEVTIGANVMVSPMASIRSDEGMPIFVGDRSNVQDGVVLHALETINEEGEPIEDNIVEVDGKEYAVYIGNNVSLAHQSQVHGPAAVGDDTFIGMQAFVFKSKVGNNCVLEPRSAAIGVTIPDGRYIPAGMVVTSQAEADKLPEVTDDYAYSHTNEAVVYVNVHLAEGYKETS
Description: Inhibitory constant against Zn-Cam (Methanosarcina thermophila)

[3] = biological target: T2, Carbonic anhydrase (Methanobacterium thermoautotrophicum, UniProt Q50565); set-up: species or system Methanothermobacter thermautotrophicus str. Delta H
T2 sequence (Q50565 whole entry): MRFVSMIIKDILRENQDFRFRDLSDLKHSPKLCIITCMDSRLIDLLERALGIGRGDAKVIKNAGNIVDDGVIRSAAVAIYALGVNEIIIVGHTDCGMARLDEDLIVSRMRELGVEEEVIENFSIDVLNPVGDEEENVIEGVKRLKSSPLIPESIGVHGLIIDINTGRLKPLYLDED

[4] = biological target: Carbonic anhydrase 1 (Homo sapiens, UniProt P00915)
[5] = biological target: Carbonic anhydrase 2 (Homo sapiens, UniProt P00918)
[6] = biological target: T2, Carbonic anhydrase; test: Inhibitory constant against methanoarchaeon Methanobacterium thermoautotrophicum (Cab); set-up: species or system Methanothermobacter thermautotrophicus str. Delta H

Chain of Carbonic anhydrase 1 (P00915 whole entry): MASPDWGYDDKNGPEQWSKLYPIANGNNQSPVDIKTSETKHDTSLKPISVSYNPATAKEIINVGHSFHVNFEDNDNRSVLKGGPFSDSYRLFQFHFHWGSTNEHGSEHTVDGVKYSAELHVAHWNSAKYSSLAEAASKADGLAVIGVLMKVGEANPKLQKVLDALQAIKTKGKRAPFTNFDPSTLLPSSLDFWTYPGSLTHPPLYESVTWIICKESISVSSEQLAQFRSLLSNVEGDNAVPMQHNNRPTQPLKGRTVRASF
Chain of Carbonic anhydrase 4 (P22748 whole entry): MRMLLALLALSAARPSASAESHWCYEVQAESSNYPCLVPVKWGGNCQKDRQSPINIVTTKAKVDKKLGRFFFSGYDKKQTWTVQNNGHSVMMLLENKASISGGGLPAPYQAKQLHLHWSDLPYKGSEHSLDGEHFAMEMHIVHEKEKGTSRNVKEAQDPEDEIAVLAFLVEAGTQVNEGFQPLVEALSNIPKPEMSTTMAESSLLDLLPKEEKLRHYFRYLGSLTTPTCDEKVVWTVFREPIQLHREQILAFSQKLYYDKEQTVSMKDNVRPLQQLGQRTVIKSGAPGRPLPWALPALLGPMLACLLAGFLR

| SMILES | Ki [1] [mM] | Ki [2] | Ki [3] | Ki [4] [mM] | Ki [5] [mM] | Ki [6] [mM] |
| --- | --- | --- | --- | --- | --- | --- |
| O=S(=O)(O)O [SULFURIC ACID] | 44 | – | – | – | – | – |
| NS(N)(=O)=O [SULFAMIDE] | – | 0.07 mM | – | – | – | – |
| O=NO [NITROUS ACID] | – | 6.8 mM | 44.8 mM | – | – | – |
| O=[N+]([O-])O [NITRIC ACID] | – | 36.5 mM | 7.8 mM | 7 | – | – |
| O[B-](O)(O)c1ccccc1 [OXO(PHENYL)-BORANEDIOL] | – | 0.15 mM | 0.33 mM | 31.7 | 49.2 | – |
| I [IODIDE] | 11 | 160 mM | – | 0.3 | – | 13.2 |
| NS(=O)(=O)O [SULFAMATE] | – | 9.6 mM | 44 mM | 0.02 | – | – |
| N#CS [THIOCYANIC ACID] | – | 7 mM | – | – | – | – |
| OB(O)c1ccccc1 [PHENYLBORONIC ACID] | – | 0.23 mM | 0.2 mM | 58.6 | – | – |
| Cl [HYDROCHLORIC ACID] | 36 | > 200 mM | – | 6 | – | 152 |
| O=C(O)O [BICARBONATE] | 44 | 42 mM and 6.7 mM | 44.9 mM and 9.6 mM | – | – | – |
| Br [BROMIDE] | 52 | 160 mM | – | 4 | – | 42.1 |
| S [HYDROGEN SULFIDE] | – | 0.05 mM | 0.7 mM | 0.0006 | – | – |
